In patent publication US20160319277A1, “METHODS OF IMPROVED PROTEIN PRODUCTION USING MIRNAs AND SIRNAs” (THE JOHNS HOPKINS UNIVERSITY, priority 2015, published 2016):

Test system: T-REx-293-NTSR1-GFP cells
Assay: High-throughput human miRNA mimic library screen, image-based per cell green fluorescence (NTSR1-GFP expression)
Conditions: per cell green fluorescence intensity; for MAD-based z-score: 72 h after transfection plus 24 h tetracycline induction
Experimental: T-REx-293-NTSR1-GFP cells were screened with a miRNA mimic library (Qiagen) based on Sanger miRBase™ 13.0 and consisting of 875 miRNAs mimics. For transfection, 0.8 pmol of each mimic was spotted to 384 well plate wells (Corning) and 20 μL of serum-free DMEM containing 0.1 μL of Lipofectamine™ RNAiMax (Life Technologies) was then added to each well. This lipid-miRNA mixture was incubated at ambient temperature for 30 min prior to adding 2000 cells in 20 μL of DMEM containing 20% certified FBS (Gibco). Transfected cells were incubated at 37° C. in 5% CO2 for 72 hours and induced with 1 μg/mL tetracycline for 24 hours for NTSR1-GFP expression. Cells were then fixed with 2% paraformaldehyde (Electron Microscopy Sciences), stained with Hoechst™ 33342 (Life Technologies) for 45 minutes and gently washed with PBS. Plates were imaged with an ImageXpress Micro XL™ (Molecular Devices). Total cell number and per cell green fluorescence intensity were calculated using MetaXpress™ software (Molecular Devices) employing the Multi-Wavelength Cell Scoring™ application module. […] A full column of positive control siRNA targeting GFP (GFP-22 siRNA, Qiagen) was also used as on-plate reference for transfection efficiency. The median absolute deviation (MAD)-based z-score was calculated for each sample.

Sequence | Signal relative to negative control (%) | MAD-based z-score
AAACCUGUGUUGUUCAAGAGUC (listed as RNA, chemistry not given here; listed as Homo sapiens) [miR-649, human miRNA mimic] | 150% | 2.0
AACUGGCCCUCAAAGUCCCGCU (listed as RNA, chemistry not given here; listed as Homo sapiens) [miR-193b-3p, human miRNA mimic] | 166% | 2.5
AACUGGCCUACAAAGUCCCAGU (listed as RNA, chemistry not given here; listed as Homo sapiens) [miR-193a-3p, human miRNA mimic] | 156% | 2.3
ACAGAUUCGAUUCUAGGGGAAU (listed as RNA, chemistry not given here; listed as Homo sapiens) [miR-10b-3p, human miRNA mimic] | 162% | 2.4
ACUCUUUCCCUGUUGCACUAC (listed as RNA, chemistry not given here; listed as Homo sapiens) [miR-130b-5p, human miRNA mimic] | 178% | 2.9
AGGAGGCAGCGCUCUCAGGAC [miR-650] | 163% | 2.5
CAGUGCAAUAGUAUUGUCAAAGC (listed as RNA, chemistry not given here; listed as Homo sapiens) [miR-301a-3p, human miRNA mimic] | 176% | 2.9
CAUCCCUUGCAUGGUGGAGGG (listed as RNA, chemistry not given here; listed as Homo sapiens) [miR-188-5p, human miRNA mimic] | 177% | 2.9
CUAUACAGUCUACUGUCUUUCC (listed as RNA, chemistry not given here; listed as Homo sapiens) [let-7f-2-3p, human miRNA mimic] | 178% | 3.0
CUGCCAAUUCCAUAGGUCACAG (listed as RNA, chemistry not given here; listed as Homo sapiens) [miR-192-3p, human miRNA mimic] | 148% | 2.0
CUGUGCGUGUGACAGCGGCUGA [miR-210-3p] | 183% | 3.2
GCUACUUCACAACACCAGGGCC (listed as RNA, chemistry not given here; listed as Homo sapiens) [miR-138-1-3p, human miRNA mimic] | 167% | 2.5
GUGUGUGGAAAUGCUUCUGC (listed as RNA, chemistry not given here; listed as Homo sapiens) [miR-147a, human miRNA mimic] | 168% | 2.6
UCCGUCUCAGUUACUUUAUAGC (listed as RNA, chemistry not given here; listed as Homo sapiens) [miR-340-3p, human miRNA mimic] | 159% | 2.3
UGAGGUAGUAGGUUGUAUGGUU (listed as RNA, chemistry not given here; listed as Homo sapiens) [let-7c-5p, human miRNA mimic] | 168% | 2.6
UGAGUGCCGGUGCCUGCCCUG (listed as RNA, chemistry not given here; listed as Homo sapiens) [miR-1909-5p, human miRNA mimic] | 169% | 2.6
UGGUUGUAGUCCGUGCGAGAAUA (listed as RNA, chemistry not given here; listed as Homo sapiens) [miR-1974, human miRNA mimic] | 201% | 3.6
